# Laboratory results reported in PMC11640973, “The Detection of Toxic Amyloid-β Fibril Fragments Through a Surface Plasmon Resonance Immunoassay” (International Journal of Molecular Sciences, 2024).
# Tests used:
# [1] = SPR-based approach; ref [21]; cited from earlier work
# Excerpt: In order to reliably detect transient oligomeric species in a mixture of aggregated species without sample manipulation, an immunoassay based on surface plasmon resonance (SPR) has been proposed. This method exploits the properties of an anti-Aβ antibody (4G8) for a direct and simultaneous determination of monomers and biologically relevant (i.e., toxic) transient oligomeric species, also distinguishing the latter from large fibrils. SPR is a highly quantitative technique for measuring binding kinetics and determining monomer concentrations. However, in the context of aggregation assays ...
# [2] = test system: anti-Aβ antibody 4G8; test: SPR immunoassay of Aβ42 binding to immobilized anti-Aβ antibody 4G8
# Excerpt: This binding profile resembles closely that described previously for a solution containing monomers only. […]
# For the present work, we used both the ProteOn™ XPR36 Protein Interaction Array system (Bio-Rad Laboratories, Hercules, CA, USA) and the Sierra SPR®-32 Pro (Bruker, Billerica, MA, USA). The ProteOn™ XPR36 allows for the preparation of six parallel lanes, each representing a different surface on a single chip, with, for instance, five lanes used for ligand (target) immobilization and one designated as a reference. By rotating the chip, each ligand surface can interact with up to six analytes, enabling the simultaneous analysis of up to 36 unique interactions in a single run. The Sierra SPR®-32 Pro is configured with 8 separate channels, each containing four detection spots, one of which serves as a reference spot, enabling analysis with up to 8 samples per run.
# The anti-Aβ antibody 4G8 (Signet Laboratories, Emeryville, CA, USA) was immobilized on a CMD50L sensor chip (XanTec bioanalytics, Düsseldorf, Germany) using standard amine coupling chemistry, following standard protocols. A solution of 30 µg/mL 4G8 antibody in 20 mM acetate buffer pH 5.0 was injected for immobilization.
# To monitor the aggregation of Aβ42 over time, we followed the general protocol described above. Briefly, Aβ42 was prepared at a final concentration of 50 µM in PBS and incubated at 37 °C. Samples were collected at various time points (0, 6, and 120 h) to capture distinct aggregated forms corresponding to monomers, oligomers/small fibrils, and fibrils. […] The signal from the 4G8-immobilized surface was corrected by subtracting the nonspecific response observed on the empty parallel reference surface.
# [3] = Aβ42 compared to Aβ40; ref [35]; cited from earlier work
# Protocol: The lyophilized powder obtained from the synthesis and purification was suspended in 0.02% Trifluoracetic acid (TFA). The final pH of the solution was 2.8, ensuring the stability of the depsi bond and preventing premature conversion to the native peptide. The concentration was measured using UV ...
# [4] = stock solution in 50 mM NaOH (1 mg/mL), −80 °C; ref [38]; cited from earlier work
# Protocol: To further validate our results, we used native forms of Aβ42. Lyophilized recombinant Aβ42 (rPepride) and the synthetic Aβ42 (Bachem) were suspended in a 50 mM NaOH solution (1 mg/mL) following the protocol of Taylor et al., which provides a simple and reliable method for the high-yield preparation of seedless Aβ monomers. […] This validated approach reduces handling variability and ensures reproducibility in experiments.
# [5] = test system: SHSY-5Y cells; test: MTT toxicity assay on SHSY-5Y cells; assay type: cell-based; details: 24 h; for toxic effect (cell viability): Bachem Aβ42, 10 to 100 nM; for cell viability (of control): 10 nM, 95%CI fibrils 67.3–76.0%, fragmented 39.6–48.0%; for cell viability (of control) / cell viability (of controls): Bachem Aβ42, fibrils from 48 h at 37 °C, three sessions each in triplicate; for cell viability (of controls): 30 nM, 95%CI fibrils 52.1–57.3, fragmented 39.7–45.71%; for cell viability versus vehicle control cells: 10 to 100 nM, fibrils ± sonication, p < 0.01, one-way ANOVA
# Protocol: SHSY-5Y cell survival was assessed using the MTT colorimetric assay after exposure to Aβ species—including monomers (t = 0), fibrils, and sonicated fibrils (48 h)—prepared and incubated at a concentration of 100 µM for aggregation. As described in the sample preparation chapter, cells were exposed to these Aβ species at final concentrations of 10, 30, and 100 nM for 24 h. Following exposure, cells were incubated with a culture medium (100 µL/well) containing a 1:10 dilution of Thiazolyl blue tetrazolium bromide (MTT; 4 mg dissolved in 1 mL DPBS). The plates were then placed in the incubator for 3 h. At the end of the incubation, the medium containing MTT was replaced with HCl-Isopropanol (1N HCl diluted 1:25 in 100% isopropanol). The absorbance of the colored solution was measured at 540 nm using a microplate spectrophotometer (F500 Infinity, Tecan, Männedorf, Switzerland).
# Statistical calculations were performed using GraphPad Prism (version 9.4; GraphPad Software, Bethesda, MD, USA). Paired t-tests were used to analyze differences between experimental conditions (e.g., Figure 3), while one-way ANOVA followed by Tukey’s post hoc test was applied for multiple group comparisons (e.g., Figure 4). The data are presented as mean ± standard deviation (SD). The statistical significance was defined as p < 0.05.
# [6] = incubated 5 days, then one freeze–thaw cycle
# [7] = freshly prepared Aβ42 (t = 0), 5 µM
# [8] = freshly prepared Aβ42 (t = 0), 5 µM in PBST (0.005% Tween), flowed over immobilized 4G8
compound,measurement,setting,value
O=C(O[C@@H]1Cc2c(O)cc(O)cc2O[C@@H]1c1cc(O)c(O)c(O)c1)c1cc(O)c(O)c(O)c1 [epigallocatechin gallate],effect on formation of Aβ42 oligomers,[1],inhibited
"fibrillar macroaggregates: Aβ42 incubated 5 days, larger suprafibrillar macroaggregates",recognition of fibrillar macroaggregates by SPR,[2]; incubated 5 days at 37 °C,not recognized by SPR
Amyloid-β1–42 [Aβ42],dissociation of most of the binding signal,"[2]; 50 µM in PBS incubated 6 h at 37 °C, diluted to 5 µM, 15 min dissociation phase",very slow dissociation
same,SPR binding signal on immobilized 4G8,"[2]; 50 µM in PBS incubated 6 h at 37 °C, diluted to 5 µM, versus t = 0",marked increase in the SPR binding signal
same,decrease in the monomer signal,"[2]; 6 h of aggregation, 50 µM in PBS, 37 °C",56%
same,oligomer-dependent SPR signal (slow dissociation),"[2]; fragmentation by freeze–thaw or sonication, eight independent experiments, rPeptide, Bachem or depsi-peptide Aβ42, Proteon or Bruker, p = 0.0012 paired t-test",fragmentation-induced increase in SPR-detected Aβ42 oligomers
same,time to complete dissociation of signal,[2]; incubated 5 days at 37 °C (residual monomers),≤ 15 min
same,SPR signal,"[2]; incubated 5 days at 37 °C, versus 6 h and freshly prepared","much lower SPR signal compared to the solution incubated for 6 h (Figure 2c), and even lower than that of the freshly prepared solution"
same,SPR signals,[2]; [6],marked increase in the SPR signals
same,absolute amount of monomers,[2]; [6],decreased
same,aggregation propensity,[3],higher aggregation propensity
same,stability of monomeric state,[4],at least 40 days
"Aβ40: Aβ1–40, fragment of Amyloid Precursor Protein [reference compound]",aggregation propensity,[3],aggregates more slowly
"Aβ42 monomer: freshly prepared Aβ42 solution (t = 0), containing monomers only",KD (calculated from the ratio koff/kon),"[2]; Aβ42 monomer binding to immobilized 4G8, t = 0",about 140 nM
same,time to complete dissociation,[2]; [7],≤ 15 min
same,time to saturation of SPR binding signal,[2]; [7],≈ 1 min
same,koff,[2]; [8],0.0044 s⁻¹
same,kon,[2]; [8],31000 M⁻¹ s⁻¹
same,toxic effect (cell viability),[5]; MTT,rule out any toxic effect
"fibrils: Aβ42 purchased from Bachem, fibrils obtained after 48 h incubation at 37 °C",cell viability (of control),[5]; MTT,71.6%
same,cell viability (of controls),[5]; MTT,54.73%
same,cell viability versus vehicle control cells,[5],significantly different from the viability of control cells
same,toxic effect (cell viability),[5]; MTT,concentration-dependent toxicity
sonicated fibrils: Aβ42 fibrils produced by tip sonication (1 min 10% power 30% cycles),cell viability (of control),[5]; MTT,43.8%
same,cell viability (of controls),[5]; MTT,42.7%
same,cell viability versus vehicle control cells,[5],significantly different from the viability of control cells
same,"fibril toxicity, change by fragmentation","[5]; sonicated versus unfragmented fibrils, 10 and 30 nM, MTT",significantly increased by fragmentation
